Measured values: ChEMBL document CHEMBL2346658, “8,8-dialkyldihydroberberines with potent antiprotozoal activity” (J Nat Prod, 2013)
Where a name gives a salt, the structure may show the parent alone. Active and inactive are the calls of the source. The rule behind the calls is not given here.

Columns and labels:
[1] = Binding affinity to poly(dA.dT) DNA (unknown origin) assessed as change in melting temperature
[2] = tested on: Trypanosoma brucei rhodesiense; assay: Antitrypanosomal activity against Trypanosoma brucei rhodesiense STIB900 infected in NMRI mouse assessed as infection cure rate at 1 mg/kg/day for 4 days starting from 3 to 6 days post-infection measured on day 10; format: functional, organism-based
[3] = tested on: Trypanosoma brucei rhodesiense; assay: Antitrypanosomal activity against Trypanosoma brucei rhodesiense STIB900 infected in NMRI mouse assessed as infection cure rate at 1 mg/kg/day for 4 days starting from 3 to 6 days post-infection measured on day 7; format: functional, organism-based
[4] = Selectivity index, ratio of IC50 for african green monkey Vero cells to IC50 for erythrocyte stage Plasmodium falciparum 3D7; format: toxicity, cell-based; conditions: read-out: Ratio IC50
[5] = Selectivity index, ratio of IC50 for african green monkey Vero cells to IC50 for Leishmania donovani; format: toxicity, cell-based; conditions: read-out: Ratio IC50
[6] = Selectivity index, ratio of IC50 for african green monkey Vero cells to IC50 for Trypanosoma brucei brucei blood-stream forms; format: toxicity, cell-based; conditions: read-out: Ratio IC50
[7] = tested on: Leishmania donovani; assay: Potency index, ratio of IC50 for chloroquine to IC50 for compound against Leishmania donovani; format: functional
[8] = tested on: Vero; assay: Cytotoxicity against african green monkey Vero cells; format: cell-based; conditions: Chlorocebus sabaeus
[9] = tested on: Trypanosoma brucei brucei; assay: Antitrypanosomal activity against Trypanosoma brucei brucei blood-stream forms; format: functional, organism-based
[10] = tested on: Leishmania donovani; assay: Antileishmanial activity against Leishmania donovani; format: functional, organism-based
[11] = tested on: Plasmodium falciparum; assay: Antimalarial activity against erythrocyte stage Plasmodium falciparum 3D7; format: functional, organism-based
[12] = tested on: Trypanosoma brucei rhodesiense; assay: Antitrypanosomal activity against Trypanosoma brucei rhodesiense STIB900 infected in NMRI mouse assessed as infection cure rate at 10 mg/kg/day for 4 days starting from 3 to 6 days post-infection measured on day 10; format: functional, organism-based
[13] = tested on: Trypanosoma brucei rhodesiense; assay: Antitrypanosomal activity against Trypanosoma brucei rhodesiense STIB900 infected in NMRI mouse assessed as infection cure rate at 10 mg/kg/day for 4 days starting from 3 to 6 days post-infection measured on day 7; format: functional, organism-based
[14] = tested on: Mus musculus; assay: Toxicity in BALB/c mouse assessed as induction of overt toxicity at 10 mg/kg/day, ip for 5 days; format: organism-based; parameters: route intraperitoneal; conditions: in vivo, 120 h
[15] = tested on: Leishmania donovani; assay: Antileishmanial activity against Leishmania donovani LV82 infected in BALB/c mouse model of visceral leishmaniasis assessed as inhibition of liver parasitemia at 10 mg/kg/day, ip for 5 days starting 7 days post-infection; format: functional; conditions: route intraperitoneal

| SMILES | ΔTm [1] [°C] | IC50 [9] [nM] | IC50 [10] [nM] | IC50 [11] [nM] | IC50 [8] [nM] | inhibition in vivo at 10 mg/kg/day [15] [%] | other results |
| --- | --- | --- | --- | --- | --- | --- | --- |
| CCC1(CC)c2c(ccc(OC)c2OC)CC2c3cc4c(cc3CCN21)OCO4 (stereo unspecified) [8,8-DIETHYLCANADINE] |  | 230 | 8900 | 1700 |  |  |  |
| COc1ccc2c(c1OC)C(C)(C)N1CCc3cc4c(cc3C1C2)OCO4 (stereo unspecified) [8,8-DIMETHYLCANADINE] |  | 52000 | 7300 | 7300 |  |  |  |
| COc1ccc2cc3[n+](cc2c1OC)CCc1cc2c(cc1-3)OCO2 [BERBERINE SULFATE] | 3.5 |  | 17000 |  | > 200000 |  |  |
| CCCCCCCCCCCCCCCCOP(=O)([O-])OCC[N+](C)(C)C [MILTEFOSINE] |  |  |  |  |  | 97 |  |
| COc1cc([C@@H]2c3cc4c(cc3[C@H](O)[C@H]3COC(=O)[C@H]23)OCO4)cc(OC)c1OC [PODOFILOX] |  |  |  |  | 17 |  |  |
| Cc1ccc(C(=O)Nc2ccc(S(=O)(=O)O)c3cc(S(=O)(=O)O)cc(S(=O)(=O)O)c23)cc1NC(=O)c1cccc(NC(=O)Nc2cccc(C(=O)Nc3cc(C(=O)Nc4ccc(S(=O)(=O)O)c5cc(S(=O)(=O)O)cc(S(=O)(=O)O)c45)ccc3C)c2)c1 [SURAMIN] |  | 130 |  |  |  |  |  |

Continued, in another order:

| ΔTm [1] [°C] | IC50 [9] [nM] | IC50 [10] [nM] | IC50 [11] [nM] | SMILES | IC50 [8] [nM] | inhibition in vivo at 10 mg/kg/day [15] [%] | other results |
| --- | --- | --- | --- | --- | --- | --- | --- |
| 0.5 | 2 | 290 | 20 | CCC1(CC)c2c(ccc(OC)c2OC)C(=O)c2c3cc4c(cc3cc[n+]21)OCO4.[Cl-] | 39000 |  | Activity [2]: inactive; Activity [3]: Active; selectivity ratio [4]: > 600; selectivity ratio [5]: > 100; selectivity ratio [6]: 3000; Ratio IC50 [7]: 4 |
| 0.5 | 5.3 | 100 | 77 | CCC1(CC)c2c(ccc(OC)c2OC)CC2=[N+]1CCc1cc3c(cc12)OCO3.[Cl-] [8,8-Diethyldihydroberberine] | 18000 | 29 | Activity [12]: inactive; Activity [13]: Active; Activity [14]: Non-toxic; selectivity ratio [5]: > 100; selectivity ratio [6]: 3000 |
| 0 | 53 | 550 | 30 | CCCC1(CCC)c2c(ccc(OC)c2OC)CC2=[N+]1CCc1cc3c(cc12)OCO3.[Cl-] [8,8-Dipropyldihydroberberine] | 19000 | 32 | Activity [14]: Non-toxic; selectivity ratio [4]: > 600; Ratio IC50 [7]: 4 |
| 0.3 | 4600 | 200 | 63 | COc1ccc2c(c1OC)C(C)(C)[N+]1=C(C2)c2cc3c(cc2CC1)OCO3.[Cl-] [8,8-dimethyldihydroberberine] | 8800 | 46 | Activity [14]: Non-toxic |
|  |  | 46 |  | C[C@@H]1[C@H](O)[C@@H](C)/C=C/C=C/C=C/C=C/C=C/C=C/C=C/[C@H](O[C@@H]2O[C@H](C)[C@@H](O)[C@H](N)[C@@H]2O)C[C@@H]2O[C@](O)(C[C@@H](O)C[C@@H](O)[C@H](O)CC[C@@H](O)C[C@@H](O)CC(=O)O[C@H]1C)C[C@H](O)[C@H]2C(=O)O [AMPHOTERICIN B] |  |  |  |
